Measured values reported in patent US6825170B2, “6-O-acyl ketolide antibacterials” (Ortho-McNeil Pharmaceutical, Inc., priority 2001, dated 2004).
≈ marks a conversion by molar mass, not a printed value.

Tests used:
Assay in all cases: MIC, microdilution broth method (NCCLS)
Format in all cases: cell-based
Settings in all cases: 35° C., 16-20 hours
H. influenzae ATCC49247 = tested on: H. influenzae ATCC49247
Procedure: (§1) Minimal inhibitory concentration (MIC) has been an indicator of in vitro antibacterial activity widely used in the art. The in vitro antimicrobial activity of the compounds was determined by the microdilution broth method following the test method from the National Committee for Clinical Laboratory Standards (NCCLS). This method is described in the NCCLS Document M7-A4, Vol.17, No.2, “Methods for Dilution Antimicrobial Susceptibility Test for Bacteria that Grow Aerobically—Fourth Edition”, which is incorporated herein by reference.
(§2) In this method two-fold serial dilutions of drug in cation adjusted Mueller-Hinton broth are added to wells in microdilution trays. The test organisms are prepared by adjusting the turbidity of actively growing broth cultures so that the final concentration of test organism after it is added to the wells is approximately 5×10^4 CFU/well.
(§3) Following inoculation of the microdilution trays, the trays are incubated at 35° C. for 16-20 hours and then read. […] The amount of growth in the wells containing the test compound is compared with the amount of growth in the growth-control wells (no test compound) used in each tray. As set forth in Table 1, compounds of the present invention were tested against a variety of Gram positive and Gram negative pathogenic bacteria resulting in a range of activities depending on the organism tested.

S. pneumoniae ATCC49619 = tested on: S. pneumoniae ATCC49619
Procedure: as §1, §2, §3

E. faecalis ATCC29212 = tested on: E. faecalis ATCC29212
Procedure: as §1, §2, §3

S. aureus ATCC29213 = tested on: S. aureus ATCC29213
Procedure: as §1, §2, §3

Row | Structure (SMILES) | MIC (E: H. influenzae ATCC49247) (H. influenzae ATCC49247) | MIC (D: S. pneumoniae ATCC49619) (S. pneumoniae ATCC49619) | MIC (C: E. faecalis ATCC29212) (E. faecalis ATCC29212) | MIC (B: S. aureus ATCC29213) (S. aureus ATCC29213)
1 | CCC1OC(=O)C(C)C(=O)C(C)C(OC2OC(C)CC(N(C)C)C2O)C(C)(OC(=O)OCC=Cc2ccc(-n3cncn3)c(F)c2)CC(C)C(=O)C(C)C2NC(=O)OC12C (stereo not shown) [Compound 31] | 1 µg/mL (≈ 1.18 µM) | 0.03 µg/mL (≈ 0.0355 µM) | 0.06 µg/mL (≈ 0.0711 µM) | 0.12 µg/mL (≈ 0.142 µM)
2 | CCC1OC(=O)C(C)C(=O)C(C)C(OC2OC(C)CC(N(C)C)C2O)C(C)(OC(=O)OCC=Cc2cnn(-c3ccccc3)c2)CC(C)C(=O)C(C)C2NC(=O)OC12C (stereo not shown) [Compound 33] | 1 µg/mL (≈ 1.21 µM) | 0.06 µg/mL (≈ 0.0727 µM) | 0.12 µg/mL (≈ 0.145 µM) | 0.25 µg/mL (≈ 0.303 µM)
3 | CCC1OC(=O)C(C)C(=O)C(C)C(OC2OC(C)CC(N(C)C)C2O)C(C)(OC(=O)OCC=Cc2cn(-c3ncccn3)cn2)CC(C)C(=O)C(C)C2NC(=O)OC12C (stereo not shown) [Compound 34] | 1 µg/mL (≈ 1.21 µM) | 0.03 µg/mL (≈ 0.0363 µM) | 0.12 µg/mL (≈ 0.145 µM) | 0.25 µg/mL (≈ 0.302 µM)
4 | CCC1OC(=O)C(C)C(=O)C(C)C(OC2OC(C)CC(N(C)C)C2O)C(C)(OC(=O)OCC=Cc2cn(-c3cnccn3)cn2)CC(C)C(=O)C(C)C2NC(=O)OC12C (stereo not shown) [Compound 35] | 1 µg/mL (≈ 1.21 µM) | 0.03 µg/mL (≈ 0.0363 µM) | 0.12 µg/mL (≈ 0.145 µM) | 0.25 µg/mL (≈ 0.302 µM)
5 | CCC1OC(=O)C(C)C(=O)C(C)C(OC2OC(C)CC(N(C)C)C2O)C(C)(OC(=O)OCC=Cc2cnc3ccccc3c2)CC(C)C(=O)C(C)C2NC(=O)OC12C (stereo not shown) [Compound 37] | 0.5 µg/mL (≈ 0.617 µM) | ≦0.015 μg/mL | 0.06 µg/mL (≈ 0.0741 µM) | 0.12 µg/mL (≈ 0.148 µM)
6 | CCC1OC(=O)C(C)C(=O)C(C)C(OC2OC(C)CC(N(C)C)C2O)C(C)(OC(=O)OCC=Cc2ccc(-c3ncco3)cc2)CC(C)C(=O)C(C)C2NC(=O)OC12C (stereo not shown) [Compound 47] | 0.5 µg/mL (≈ 0.605 µM) | ≦0.015 μg/mL | 0.06 µg/mL (≈ 0.0726 µM) | 0.12 µg/mL (≈ 0.145 µM)
7 | CCC1OC(=O)C(C)C(=O)C(C)C(OC2OC(C)CC(N(C)C)C2O)C(C)(OC(=O)OCC=Cc2ccc(-c3cnco3)cc2)CC(C)C(=O)C(C)C2NC(=O)OC12C (stereo not shown) [Compound 48] | 1 µg/mL (≈ 1.21 µM) | 0.03 µg/mL (≈ 0.0363 µM) | 0.12 µg/mL (≈ 0.145 µM) | 0.12 µg/mL (≈ 0.145 µM)
8 | CCC1OC(=O)C(C)C(=O)C(C)C(OC2OC(C)CC(N(C)C)C2O)C(C)(OC(=O)OCC=Cc2ccc(-c3nccs3)cc2)CC(C)C(=O)C(C)C2NC(=O)OC12C (stereo not shown) [Compound 49] | 1 µg/mL (≈ 1.19 µM) | 0.03 µg/mL (≈ 0.0356 µM) | 0.12 µg/mL (≈ 0.143 µM) | 0.12 µg/mL (≈ 0.143 µM)
9 | CCC1OC(=O)C(C)C(=O)C(C)C(OC2OC(C)CC(N(C)C)C2O)C(C)(OC(=O)OCC=Cc2ccc(-c3cccs3)cc2)CC(C)C(=O)C(C)C2NC(=O)OC12C (stereo not shown) [Compound 50] | 2 µg/mL (≈ 2.38 µM) | 0.06 µg/mL (≈ 0.0713 µM) | 0.5 µg/mL (≈ 0.595 µM) | 1 µg/mL (≈ 1.19 µM)
10 | CCC1OC(=O)C(C)C(=O)C(C)C(OC2OC(C)CC(N(C)C)C2O)C(C)(OC(=O)OCC=Cc2ccc(-c3nnco3)cc2)CC(C)C(=O)C(C)C2NC(=O)OC12C (stereo not shown) [Compound 52] | 1 µg/mL (≈ 1.21 µM) | ≦0.015 μg/mL | 0.06 µg/mL (≈ 0.0726 µM) | 0.12 µg/mL (≈ 0.145 µM)
11 | CCC1OC(=O)C(C)C(=O)C(C)C(OC2OC(C)CC(N(C)C)C2O)C(C)(OC(=O)OCC=Cc2nc3ccccc3n2C)CC(C)C(=O)C(C)C2NC(=O)OC12C (stereo not shown) [Compound 55] | 1 µg/mL (≈ 1.23 µM) | 0.03 µg/mL (≈ 0.0369 µM) | 0.12 µg/mL (≈ 0.148 µM) | 0.25 µg/mL (≈ 0.308 µM)
12 | CCC1OC(=O)C(C)C(=O)C(C)C(OC2OC(C)CC(N(C)C)C2O)C(C)(OC(=O)OCC=Cc2ccc(-c3ncc(Br)cn3)cc2)CC(C)C(=O)C(C)C2NC(=O)OC12C (stereo not shown) [Compound 56] | 2 µg/mL (≈ 2.18 µM) | 0.06 µg/mL (≈ 0.0655 µM) | 0.25 µg/mL (≈ 0.273 µM) | 0.5 µg/mL (≈ 0.546 µM)
13 | CCc1cnc(-c2ccc(C=CCOC(=O)OC3(C)CC(C)C(=O)C(C)C4NC(=O)OC4(C)C(CC)OC(=O)C(C)C(=O)C(C)C3OC3OC(C)CC(N(C)C)C3O)cc2)nc1 (stereo not shown) [Compound 58] | 4 µg/mL (≈ 4.62 µM) | 0.06 µg/mL (≈ 0.0694 µM) | 0.5 µg/mL (≈ 0.578 µM) | 0.5 µg/mL (≈ 0.578 µM)
14 | CCC1OC(=O)C(C)C(=O)C(C)C(OC2OC(C)CC(N(C)C)C2O)C(C)(OC(=O)OCC=Cc2ccc(-c3ccc(C)nn3)cc2)CC(C)C(=O)C(C)C2NC(=O)OC12C (stereo not shown) [Compound 61] | 1 µg/mL (≈ 1.18 µM) | 0.03 µg/mL (≈ 0.0353 µM) | 0.12 µg/mL (≈ 0.141 µM) | 0.12 µg/mL (≈ 0.141 µM)
15 | CCC1OC(=O)C(C)C(=O)C(C)C(OC2OC(C)CC(N(C)C)C2O)C(C)(OC(=O)OCC=Cc2ccc(-c3ccccn3)s2)CC(C)C(=O)C(C)C2NC(=O)OC12C (stereo not shown) [Compound 63] | 1 µg/mL (≈ 1.19 µM) | 0.06 µg/mL (≈ 0.0713 µM) | 0.12 µg/mL (≈ 0.143 µM) | 0.25 µg/mL (≈ 0.297 µM)
16 | CCC1OC(=O)C(C)C(=O)C(C)C(OC2OC(C)CC(N(C)C)C2O)C(C)(OC(=O)OCC=Cc2ccc(-c3ncccn3)s2)CC(C)C(=O)C(C)C2NC(=O)OC12C (stereo not shown) [Compound 64] | 1 µg/mL (≈ 1.19 µM) | 0.03 µg/mL (≈ 0.0356 µM) | 0.06 µg/mL (≈ 0.0712 µM) | 0.12 µg/mL (≈ 0.142 µM)
17 | CCC1OC(=O)C(C)C(=O)C(C)C(OC2OC(C)CC(N(C)C)C2O)C(C)(OC(=O)OCC=Cc2ccc(-c3cnccn3)s2)CC(C)C(=O)C(C)C2NC(=O)OC12C (stereo not shown) [Compound 65] | 1 µg/mL (≈ 1.19 µM) | 0.03 µg/mL (≈ 0.0356 µM) | 0.12 µg/mL (≈ 0.142 µM) | 0.25 µg/mL (≈ 0.297 µM)
18 | CCC1OC(=O)C(C)C(=O)C(C)C(OC2OC(C)CC(N(C)C)C2O)C(C)(OC(=O)OCC=Cc2cnc(-c3ccccc3)nc2)CC(C)C(=O)C(C)C2NC(=O)OC12C (stereo not shown) [Compound 72] | 2 µg/mL (≈ 2.39 µM) | 0.03 µg/mL (≈ 0.0358 µM) | 0.06 µg/mL (≈ 0.0717 µM) | 0.25 µg/mL (≈ 0.299 µM)
19 | CCC1OC(=O)C(C)C(=O)C(C)C(OC2OC(C)CC(N(C)C)C2O)C(C)(OC(=O)OCC=Cc2ccc(-c3cccs3)s2)CC(C)C(=O)C(C)C2NC(=O)OC12C (stereo not shown) [Compound 73] | 16 µg/mL (≈ 18.9 µM) | 0.25 µg/mL (≈ 0.295 µM) | 1 µg/mL (≈ 1.18 µM) | 2 µg/mL (≈ 2.36 µM)
20 | CCC1OC(=O)C(C)C(=O)C(C)C(OC2OC(C)CC(N(C)C)C2O)C(C)(OC(=O)OCC=C(C)c2ccc(-c3ncccn3)cc2)CC(C)C(=O)C(C)C2NC(=O)OC12C (stereo not shown) [Compound 76] | 1 µg/mL (≈ 1.18 µM) | 0.03 µg/mL (≈ 0.0353 µM) | 0.12 µg/mL (≈ 0.141 µM) | 0.25 µg/mL (≈ 0.294 µM)
21 | CCC1OC(=O)C(C)C(=O)C(C)C(OC2OC(C)CC(N(C)C)C2O)C(C)(OC(=O)OCC#Cc2cc(-c3ccccn3)no2)CC(C)C(=O)C(C)C2NC(=O)OC12C (stereo not shown) [Compound 122] | 1 µg/mL (≈ 1.21 µM) | ≦0.015 μg/mL | 0.06 µg/mL (≈ 0.0727 µM) | 0.12 µg/mL (≈ 0.145 µM)
22 | CCC1OC(=O)C(C)C(=O)C(C)C(OC2OC(C)CC(N(C)C)C2O)C(C)(OC(=O)OCCC#Cc2ccc(-c3ncccn3)cc2)CC(C)C(=O)C(C)C2NC(=O)OC12C (stereo not shown) [Compound 137] | 4 µg/mL (≈ 4.71 µM) | 0.03 µg/mL (≈ 0.0353 µM) | 0.12 µg/mL (≈ 0.141 µM) | 0.25 µg/mL (≈ 0.294 µM)
23 | CCC1OC(=O)C(C)C(=O)C(C)C(OC2OC(C)CC(N(C)C)C2O)C(C)(OC(=O)OCCCn2cnc3ccccc32)CC(C)C(=O)C(C)C2NC(=O)OC12C (stereo not shown) [Compound 159] | 1 µg/mL (≈ 1.25 µM) | 0.03 µg/mL (≈ 0.0375 µM) | 0.12 µg/mL (≈ 0.15 µM) | 0.25 µg/mL (≈ 0.312 µM)
24 | CCC1OC(=O)C(C)C(=O)C(C)C(OC2OC(C)CC(N(C)C)C2O)C(C)(OC(=O)OCC(F)=Cc2ccc(-c3ncccn3)cc2)CC(C)C(=O)C(C)C2NC(=O)OC12C (stereo not shown) [Compound 160] | 1 µg/mL (≈ 1.17 µM) | 0.03 µg/mL (≈ 0.0351 µM) | 0.06 µg/mL (≈ 0.0702 µM) | 0.12 µg/mL (≈ 0.14 µM)
25 | CCC1OC(=O)C(C)C(=O)C(C)C(OC2OC(C)CC(N(C)C)C2O)C(C)(OC(=O)OCC(F)=Cc2ccc(-c3cccnn3)cc2)CC(C)C(=O)C(C)C2NC(=O)OC12C (stereo not shown) [Compound 168] | 0.5 µg/mL (≈ 0.585 µM) | ≦0.015 μg/mL | 0.06 µg/mL (≈ 0.0702 µM) | 0.12 µg/mL (≈ 0.14 µM)
